Results taken from patent publication US9062041B2 (Bayer Intellectual Property GmbH, priority 2011, dated 2015).

Tests used:
Type in all cases: cell-based
[1] = molecular target: EP4 subtype of the human PGE2 receptor (Homo sapiens, UniProt P35408); experiment: cAMP antagonism test on the human EP4 receptor (HTRF cAMP detection); conditions: selectivity towards hEP4, IC50 measured by cAMP antagonism test
Method in brief: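 Cells expressing human EP4 preincubated 20 min at RT with compound (0.8 nM–16.5 μM), then stimulated with PGE2 (0.3 nM in 3× solution, with IBMX) 60 min at RT. After lysis, cAMP measured by HTRF competition (665/620 nm ratio); antagonism seen as rise in FRET signal.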

human PGD receptor = molecular target: T1, human PGD receptor (Homo sapiens, UniProt Q13258); experiment: cAMP antagonism test on the human prostaglandin D receptor (HTRF cAMP detection); conditions: selectivity towards hDP, IC50 measured by cAMP antagonism test
T1 sequence (Q13258 1-359): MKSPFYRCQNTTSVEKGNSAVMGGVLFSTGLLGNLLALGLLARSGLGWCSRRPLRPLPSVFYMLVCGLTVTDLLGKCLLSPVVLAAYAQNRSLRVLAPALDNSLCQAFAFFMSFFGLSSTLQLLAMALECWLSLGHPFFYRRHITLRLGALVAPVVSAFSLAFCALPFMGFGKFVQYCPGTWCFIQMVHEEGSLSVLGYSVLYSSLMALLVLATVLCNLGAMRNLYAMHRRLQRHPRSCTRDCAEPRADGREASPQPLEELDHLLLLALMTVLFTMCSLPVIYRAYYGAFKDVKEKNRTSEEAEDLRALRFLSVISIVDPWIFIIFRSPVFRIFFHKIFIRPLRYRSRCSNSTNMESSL
Method in brief: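 Cells pre-mixed with cAMP-d2 were preincubated with compound (0.8 nM–16.5 μM) for 20 min at RT, then stimulated with 3× PGD2 solution (6 nM, in PBS-IBMX) for 30 min at RT. After lysis (20 min), HTRF read at 665/620 nm; antagonism seen as rise in FRET ratio.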

[2] = molecular target: EP2 subtype of the human PGE2 receptor (Homo sapiens, UniProt P43116); experiment: cAMP antagonism test on the human EP2 receptor (HTRF cAMP detection); conditions: hEP2 receptor, read-out: Antagonism hEP2 IC50
Method in brief: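 Cells expressing human EP2 preincubated 20 min at RT with compound (0.8 nM–16.5 μM), then stimulated 60 min with PGE2 (3× solution 1.5 nM) in PBS-IBMX. After 20 min lysis, cAMP measured by competitive HTRF with cAMP-d2 and Eu cryptate anti-cAMP antibody (665/620 nm ratio).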

EP2 subtype of the human PGE2 receptor, sequence (P43116 whole entry): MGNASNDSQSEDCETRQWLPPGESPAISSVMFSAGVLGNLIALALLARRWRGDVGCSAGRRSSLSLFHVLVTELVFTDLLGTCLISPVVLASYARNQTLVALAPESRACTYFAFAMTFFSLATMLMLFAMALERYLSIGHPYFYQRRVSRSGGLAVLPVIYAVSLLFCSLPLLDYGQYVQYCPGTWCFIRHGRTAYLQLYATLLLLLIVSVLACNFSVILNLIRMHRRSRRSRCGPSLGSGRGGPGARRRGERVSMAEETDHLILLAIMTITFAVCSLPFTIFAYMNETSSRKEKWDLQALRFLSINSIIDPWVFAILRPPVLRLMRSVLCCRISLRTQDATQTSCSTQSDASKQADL
EP4 subtype of the human PGE2 receptor, sequence (P35408 whole entry): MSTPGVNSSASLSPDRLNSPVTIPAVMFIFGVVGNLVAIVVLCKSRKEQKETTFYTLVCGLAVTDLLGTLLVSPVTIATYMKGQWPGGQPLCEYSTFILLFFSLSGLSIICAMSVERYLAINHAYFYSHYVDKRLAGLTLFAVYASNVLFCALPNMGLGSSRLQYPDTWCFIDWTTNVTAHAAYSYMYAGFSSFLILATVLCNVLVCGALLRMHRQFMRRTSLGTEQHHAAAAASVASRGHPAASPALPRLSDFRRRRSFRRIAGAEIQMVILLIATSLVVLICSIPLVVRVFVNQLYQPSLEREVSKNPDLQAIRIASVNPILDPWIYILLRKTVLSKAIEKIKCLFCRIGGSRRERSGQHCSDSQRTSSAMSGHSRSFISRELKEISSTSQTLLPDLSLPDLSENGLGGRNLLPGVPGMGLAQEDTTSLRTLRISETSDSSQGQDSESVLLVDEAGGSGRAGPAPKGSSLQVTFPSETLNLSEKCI

Compound	Selectivity hEP2/hEP4 [1]	Selectivity hEP2/hDP (human PGD receptor)	IC50 [2]
Cc1c(C(=O)NCCN2CCOCC2)ccc2nn(CC3CCN(C(=O)c4ccc(C(F)(F)F)cc4)CC3)cc12 [Example 63, 4-methyl-N-(2-morpholinoethyl)-2-({1-[4-(trifluoromethyl)benzoyl]piperidin-4-yl}methyl)-2H-indazol-5-carboxamide]	xx (xx: 10-100)	xx (xx: 10-100)	1440 nM
Cc1c(C(=O)NCCN2CCOCC2)ccc2nn(CC3CCN(C(=O)c4cccc(S(F)(F)(F)(F)F)c4)CC3)cc12 [Example 64]	x (x: 1-10)	x (x: 1-10)	4130 nM
Cc1c(C(=O)NCCN2CCOCC2)ccc2nn(CC3CCN(C(=O)c4cccc(C(F)(F)F)c4)CC3)cc12 [Example 65, 4-methyl-N-(2-morpholinoethyl)-2-({1-[3-(trifluoromethyl)benzoyl]piperidin-4-yl}methyl)-2H-indazol-5-carboxamide]	x (x: 1-10)	x (x: 1-10)	2790 nM
Cc1c(C(=O)NCCN2CCOCC2)ccc2nn(CC3CCN(C(=O)c4ccc(-c5ccc(F)cc5)cc4)CC3)cc12 [Example 66, 2-({1-[(4′-fluoro-biphenyl-4-yl)-carbonyl]piperidin-4-yl}methyl)-4-methyl-N-(2-morpholino-ethyl)-2H-indazol-5-carboxamide]	xx (xx: 10-100)	xx (xx: 10-100)	321 nM
Cc1c(C(=O)NCCN2CCOCC2)ccc2nn(CC3CCN(C(=O)c4ccc(Oc5ccc(F)cc5)cc4)CC3)cc12 [Example 67, 2-({1-[4-(4-fluoro-phenoxy)benzoyl]-piperidin-4-yl}-methyl)-4-methyl-N-(2-morpholinoethyl)-2H-indazol-5-carboxamide]	xx (xx: 10-100)	xx (xx: 10-100)	405 nM
Cc1c(C(=O)NCCN2CCC(F)(F)C2)ccc2nn(CC3CCN(C(=O)c4ccc(S(F)(F)(F)(F)F)cc4)CC3)cc12 [Example 68, N-[2-(3,3-difluoropyrrolidin-1-yl)ethyl]-4-methyl-2-({1-[4-(pentafluoro-λ^6-sulphanyl)benzoyl]piperidin-4-yl}methyl)-2H-indazol-5-carboxamide]	xxx (xxx > 100)	xxx (xxx > 100)	17.7 nM
Cc1c(C(=O)NCC(F)(F)F)ccc2nn(CC3CCN(C(=O)c4ccc(S(F)(F)(F)(F)F)cc4)CC3)cc12 [Example 71, 4-methyl-2-({1-[4-(pentafluoro-λ^6-sulphanyl)benzoyl]piperidin-4-yl}methyl)-N-(2,2,2-trifluoroethyl)-2H-indazol-5-carboxamide]	xxx (xxx > 100)	xxx (xxx > 100)	82.9 nM
Cc1c(C(=O)NCC(F)(F)F)ccc2nn(CC3CCN(C(=O)c4ccc(Cl)cc4)CC3)cc12 [Example 72, 2-{[1-(4-chlorobenzoyl)piperidin-4-yl]methyl}-4-methyl-N-(2,2,2-trifluoroethyl)-2H-indazol-5-carboxamide]	xxx (xxx > 100)	xxx (xxx > 100)	120 nM
Cc1c(C(=O)NCC(F)(F)F)ccc2nn(CC3CCN(C(=O)c4ccc(OC(F)(F)F)cc4)CC3)cc12 [Example 73, 4-methyl-N-(2,2,2-trifluoroethyl)-2-({1-[4-(trifluoromethoxy)benzoyl]piperidin-4-yl}methyl)-2H-indazol-5-carboxamide]	xxx (xxx > 100)	xxx (xxx > 100)	77.8 nM
Cc1cc2nn(CC3CCN(C(=O)c4ccc(Cl)cc4)CC3)cc2cc1C(=O)NCCN1CCOCC1 [Example 74, 2-{[1-(4-chlorobenzoyl)piperidin-4-yl]methyl}-6-methyl-N-(2-morpholinoethyl)-2H-indazol-5-carboxamide]	xxx (xxx > 100)	xxx (xxx > 100)	95.4 nM
Cc1cc2nn(CC3CCN(C(=O)c4ccc(OC(F)(F)F)cc4)CC3)cc2cc1C(=O)NCCN1CCOCC1 [Example 75, 6-methyl-N-(2-morpholinoethyl)-2-({1-[4-(trifluorometh-oxy)benzoyl]piperidin-4-yl}methyl)-2H-indazol-5-carboxamide]	xxx (xxx > 100)	xxx (xxx > 100)	67 nM
Cc1cc2nn(CC3CCN(C(=O)c4cccc(OC(F)(F)F)c4)CC3)cc2cc1C(=O)NCCN1CCOCC1 [Example 76, 6-methyl-N-(2-morpholinoethyl)-2-({1-[3-(trifluorometh-oxy)benzoyl]piperidin-4-yl}methyl)-2H-indazol-5-carboxamide]	xx (xx: 10-100)	xx (xx: 10-100)	179 nM
Cc1cc2nn(CC3CCN(C(=O)c4ccc(S(F)(F)(F)(F)F)cc4)CC3)cc2cc1C(=O)NCCN1CCOCC1 [Example 77, 6-methyl-N-(2-morpholinoethyl)-2-({1-[4-(pentafluoro-λ^6-sulphanyl)benzoyl]piperidin-4-yl}methyl)-2H-indazol-5-carboxamide]	xxx (xxx > 100)	xxx (xxx > 100)	53.9 nM
Cc1cc2nn(CC3CCN(C(=O)c4ccc(Oc5ccc(F)cc5)cc4)CC3)cc2cc1C(=O)NCCN1CCOCC1 [Example 78, 2-({1-[4-(4-fluoro-phenoxy)benzoyl]-piperidin-4-yl}-methyl)-6-methyl-N-(2-morpholinoethyl)-2H-indazol-5-carboxamide]	xxx (xxx > 100)	xxx (xxx > 100)	31.7 nM
Cc1cc2nn(CC3CCN(C(=O)c4ccc(C(F)(F)F)cc4)CC3)cc2cc1C(=O)NCCN1CCOCC1 [Example 79, 6-methyl-N-(2-morpholinoethyl)-2-({1-[4-(trifluoro-methyl)benzoyl]-piperidin-4-yl}-methyl)-2H-indazol-5-carboxamide]	xxx (xxx > 100)	xxx (xxx > 100)	125 nM
Cc1cc2nn(CC3CCN(C(=O)c4ccc(C(F)(F)F)cc4F)CC3)cc2cc1C(=O)NCCN1CCOCC1 [Example 80, 2-({1-[2-fluoro-4-(trifluoromethyl)-benzoyl]piperidin-4-yl}-methyl)-6-methyl-N-(2-morpholinoethyl)-2H-indazol-5-carboxamide]	xxx (xxx > 100)	xxx (xxx > 100)	85.9 nM
Cc1cc2nn(CC3CCN(C(=O)c4cccc(S(F)(F)(F)(F)F)c4)CC3)cc2cc1C(=O)NCCN1CCOCC1 [Example 81, 6-methyl-N-(2-morpholinoethyl)-2-({1-[3-(pentafluoro-λ^6-sulphanyl)benzoyl]-piperidin-4-yl}-methyl)-2H-indazol-5-carboxamide]	xx (xx: 10-100)	xx (xx: 10-100)	513 nM
Cc1cc2nn(CC3CCN(C(=O)c4cccc(C(F)(F)F)c4)CC3)cc2cc1C(=O)NCCN1CCOCC1 [Example 82, 6-methyl-N-(2-morph-olinoethyl)-2-({1-[3-(trifluoromethyl)-benzoyl]piperidin-4-yl}methyl)-2H-indazol-5-carboxamide]	xx (xx: 10-100)	xx (xx: 10-100)	218 nM
